Test results taken from a melting point compilation (Tetko et al.).

Structure (SMILES) | melting point [°C]
CN(C)S(=O)(=O)c1cc(C(=O)O)ccc1Br | 257 to 259
Nc1cccc(S(=O)(=O)N2CCNC(=O)C2)c1 | 189 to 191
CN1C(=O)C(=O)N(CC(=O)O)C1=O | 191 to 193
CC1CCN(CCCC(N)=NO)CC1 | 98 to 100
Cc1oncc1C(=O)NCC(=O)O | 144 to 146
COc1ccc(Cl)cc1C1(CN)CCOCC1 | 100 to 102
COc1cc(C(=O)N2CCCC(C(=O)O)C2)cc(OC)c1OC (stereo not given) | 189 to 191
O=C(O)C(CS(=O)(=O)c1ccccc1)N1CCOCC1 (stereo not given) | 190 to 192
CC(=O)c1cccc([N+](=O)[O-])c1C | 49 to 51
CC(C)c1nnc(CC#N)[nH]1 | 148 to 150
O=C(O)c1cc(Cl)c(Cl)[nH]1 | 164 to 166
O=C(CCl)NCc1cccc(NC(=O)C2CC2)c1 | 175 to 177
O=C1CCc2c(F)ccc(F)c21 | 117 to 119
CC(=O)c1cc(Cl)cc(CN2CCN(C(C)=O)CC2)c1O | 136 to 138
O=C1COc2cc(Br)c(S(=O)(=O)Cl)cc2N1 | 211 to 213
COc1cc(C#N)cc(Cl)c1OC(C)C | 84 to 86
O=C(O)c1cc(S(=O)(=O)NCCN2CCCC2)ccc1Cl | 279 to 281
Cc1nn(C2CCS(=O)(=O)C2)c2ncc(C=O)cc12 (stereo not given) | 149 to 151
Cc1cc(NN)ncn1 | 99 to 101
CC(C)(C)OC(=O)N1CCN(C(=O)C2CCCN2)CC1 (stereo not given) | 219 to 221
N#Cc1cnccc1N | 170 to 172
O=C(O)CNc1nc2ccccc2s1 | 174 to 176
O=C(OCc1ccccc1)N1CCC(S(=O)(=O)Cl)CC1 | 62 to 64
Cc1ccc(C)n1CC(=O)O | 99 to 101
CC(C)n1c(S)nc2ccccc21 | 138 to 140
NNC(=O)NC1CC1 | 64 to 66

Further lines, results first:

melting point [°C] | Structure (SMILES)
111 to 113 | N#CCOc1ccc(CC(=O)O)cc1
84 to 86 | CN(C)c1ccc2cc(N)ccc2n1
269 to 271 | N#CCSc1ccc(C(=O)O)cc1
127 to 129 | O=S(=O)(Cl)c1ccc2c(Cl)ccc(Cl)c2c1
184 to 186 | Cc1nc2cc(NC(=O)CCC(=O)O)ccc2o1
206 to 208 | COc1ccc2[nH]cc(C(C)=O)c2c1
45 to 47 | CCc1ccc(-c2ccc(C=O)o2)cc1
125 to 127 | O=C(O)CSCC(=O)Nc1ccc(F)cc1
159 to 161 | Nc1ccc(F)c(N(S(=O)(=O)c2ccccc2)S(=O)(=O)c2ccccc2)c1
132 to 134 | O=C(O)c1csc(CCc2ccccc2)n1
179 to 181 | Cn1c(S)nnc1-c1ccco1
83 to 85 | CC(C)n1[nH]c(-c2ccccc2)cc1=N
64 to 66 | NNC(=O)c1ccc(CSc2nc3ccccc3[nH]2)cc1
105 to 107 | Cc1ccc2ncnc(Cl)c2c1
40 to 42 | Nc1cc(-c2ccco2)ccc1F
138 to 140 | O=Cc1cc(Br)ccc1OCc1ccccn1
49 to 51 | Brc1ccc(NCc2cccs2)cc1
181 to 183 | O=C(O)c1cc(-c2c(F)cccc2F)no1
65 to 67 | Cc1ccc(S(=O)(=O)OC2CCCC2c2ccccc2)cc1 (stereo not given)
103 to 106 | O=C(CCl)Nc1ccccc1-c1ccccc1
184 to 186 | Cc1cc2ccccc2n1CC(=O)O
134 to 136 | O=C(O)c1ccc(COc2ccccc2)s1
104 to 106 | O=C(O)C1CCN(C(=O)CSc2nnc(-c3ccccc3)o2)CC1
189 to 191 | Cc1nn(-c2ccccc2)c2nc(Cl)c(C=O)cc12
179 to 181 | O=C(O)CCN1C(=O)C(=O)c2ccc(F)cc21
234 to 236 | CCC(=O)Nc1cc2ccccc2cc1C(=O)O
230 to 232 | COC(=O)c1ccc2[nH]cc(C=O)c2c1
< 17 | CC(C)c1ccc(Cn2nccc2N)cc1
145 to 147 | CC(=O)N(c1ccc(Cl)cc1)c1nc(CCl)cs1
